The values below come from US20080312271A1, “AZABENZIMIDAZOLYL COMPOUNDS” (Pfizer Inc., priority 2006, published 2008).

The first experiment deals with T1, mGluR2 receptor (metabotropic glutamate receptor 2) (Homo sapiens, UniProt Q14416).
T1 construct: expressed in transfected cells
T1 sequence (Q14416 19-872, species assumed): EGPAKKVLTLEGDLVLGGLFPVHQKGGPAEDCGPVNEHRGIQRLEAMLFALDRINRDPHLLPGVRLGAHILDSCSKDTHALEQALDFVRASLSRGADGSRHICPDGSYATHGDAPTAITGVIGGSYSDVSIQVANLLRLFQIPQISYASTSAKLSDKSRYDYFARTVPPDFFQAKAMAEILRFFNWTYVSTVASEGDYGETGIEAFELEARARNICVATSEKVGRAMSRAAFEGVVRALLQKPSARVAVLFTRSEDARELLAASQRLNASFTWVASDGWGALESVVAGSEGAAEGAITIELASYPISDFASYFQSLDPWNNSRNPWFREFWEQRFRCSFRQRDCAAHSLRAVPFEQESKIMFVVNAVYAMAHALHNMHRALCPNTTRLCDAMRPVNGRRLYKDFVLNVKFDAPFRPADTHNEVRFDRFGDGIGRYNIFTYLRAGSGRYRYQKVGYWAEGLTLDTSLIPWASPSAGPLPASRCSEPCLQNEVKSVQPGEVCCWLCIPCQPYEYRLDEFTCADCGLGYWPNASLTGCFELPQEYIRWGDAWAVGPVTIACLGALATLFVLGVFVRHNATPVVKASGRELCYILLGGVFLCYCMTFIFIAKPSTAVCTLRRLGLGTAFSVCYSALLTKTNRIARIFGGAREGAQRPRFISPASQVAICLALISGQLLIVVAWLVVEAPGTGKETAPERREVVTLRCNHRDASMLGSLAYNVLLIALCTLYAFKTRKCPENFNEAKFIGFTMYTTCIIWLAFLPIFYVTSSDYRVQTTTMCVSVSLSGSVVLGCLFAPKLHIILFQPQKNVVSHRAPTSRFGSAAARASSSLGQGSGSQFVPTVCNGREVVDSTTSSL
The experiment is described as follows: mGluR2 Potentiator Screen, FLIPR, EC10-EC20 glutamate challenge. It is filed as cell-based.
Conditions: not given
In short, it runs like this: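 Potentiator assay in HEK cells stably expressing mGluR2 with Gα15, glutamine-depleted overnight, loaded with Fluo-4 plus probenecid and GPT/pyruvate to remove glutamate. Peak fluorescence ratio curve-fitted, with maximum set by on-plate standards.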
As for `C[C@@H]1CN(Cc2nc3cnccc3n2C)CC[C@@H]1c1ccc2c(c1)CCCC2` (relative stereo) [compound 190], the EC50 was determined as 0.573 µM.
Consider `Cc1cc(F)ccc1C1CCN(Cc2nc3ncccc3n2C)CC1` [compound 69], for which the EC50 was 0.353 µM.
As for `C[C@@H]1CN(Cc2nc3ncccc3n2C)CC[C@@H]1c1ccc(Cl)cc1F` (single isomer, unassigned) [compound 122], the EC50 worked out at 0.0288 µM.
`Cn1c(CN2CCC(c3ccc(F)cc3F)CC2)nc2cccnc21` [compound 85]: the EC50 was determined as 0.199 µM.
Turning to `CC(C)Oc1ccc([C@H]2CCN(Cc3nc4cnccc4n3C)C[C@H]2C)c(C(F)(F)F)c1` (relative stereo) [compound 216], the half-maximal effective concentration (EC50) was determined as 0.287 µM.
For `COc1cc(F)ccc1[C@H]1CCN(Cc2nc3ncccc3n2C)C[C@H]1C` (relative stereo) [compound 132], the EC50 turned out to be 0.0785 µM.
`C[C@@H]1CN(Cc2nc3ncccc3n2C)CC[C@@H]1c1ccc(OC(F)F)cc1` (single isomer, unassigned) [compound 224]: the 50% effective concentration (EC50) is above 1.92 µM.
Regarding `C[C@@H]1CN(Cc2nc3cnccc3n2C)CC[C@@H]1c1ccc(OC(F)(F)F)cc1Cl` (relative stereo) [compound 188], the EC50 was 0.194 µM.
As for `Cn1c(CN2CCC(c3ccc(F)cc3F)CC2)nc2ncccc21` [compound 82], the half-maximal effective concentration (EC50) is 0.251 µM.
On to `C[C@@H]1CN(Cc2nc3ncccc3n2C)CC[C@@H]1c1ccc(Cl)cc1Cl` (single isomer, unassigned) [compound 186], for which the concentration for a half-maximal effect (EC50) was found to be 0.611 µM.
Turning to `Cc1cc(F)ccc1[C@H]1CCN(Cc2nc3cnccc3n2C)C[C@H]1C` (relative stereo) [compound 205], the concentration giving a half-maximal response (EC50) is 0.243 µM.
Turning to `CC(C)Oc1ccc([C@H]2CCN(Cc3nc4cnccc4n3C)C[C@H]2C)cc1Cl` (relative stereo) [compound 193], the EC50 came out at 0.59 µM.
For `C[C@@H]1CN(Cc2nc3cnccc3n2C)CC[C@@H]1c1ccc(OC(F)(F)F)c(Cl)c1` (relative stereo) [compound 212], the half-maximal effective concentration (EC50) worked out at 0.209 µM.
Turning to `C[C@@H]1CN(Cc2nc3nccc4c3n2CCC4)CC[C@@H]1c1ccc(F)cc1F` (relative stereo) [Example 127, 2-{[Cis-4-(2,4-difluorophenyl)-3-methylpiperidin-1-yl]methyl}-5,6-dihydro-4H-imidazo[4,5,1-ij]-1,7-naphthyridine], the 50% effective concentration (EC50) was 0.0471 µM.
The same measure, in the same setting: with `Cn1c(CN2CCC(c3ccccc3C(F)(F)F)CC2)nc2cccnc21` [compound 50] the figure was 0.406 µM.
In the case of `C[C@@H]1CN(Cc2nc3cnccc3n2C)CC[C@@H]1c1ccc(OC(F)(F)F)cc1F` (relative stereo) [compound 146], the EC50 came out at 0.0555 µM.
Consider `COc1ccc(C(F)(F)F)cc1C1CCN(Cc2nc3ncccc3n2C)CC1` [compound 55], for which the concentration giving a half-maximal response (EC50) came to 0.211 µM.
With `CCCOc1ccc(Cl)cc1C1CCN(Cc2nc3cccnc3n2C)CC1` [compound 40], the EC50 turned out to be 0.41 µM.
Same read-out and setting: with `CC1CN(Cc2nc3ncccc3n2C)CCC1c1ccc(C(F)(F)F)cc1` (centres unmarked) [compound 70] the figure was 0.111 µM; with `C[C@@H]1CN(Cc2nc3ncccc3n2C)CC[C@@H]1c1ccc(F)c(F)c1` (relative stereo) [compound 121], 0.753 µM.
In the case of `COc1cc(OC(F)(F)F)ccc1[C@H]1CCN(Cc2nc3cnccc3n2C)C[C@H]1C` (relative stereo) [compound 214], the concentration for a half-maximal effect (EC50) is 0.124 µM.
As for `C[C@@H]1CN(Cc2nc3cnccc3n2C)CC[C@@H]1c1ccc(OC(F)F)cc1Cl` (relative stereo) [compound 202], the EC50 came out at 0.125 µM.
Take `C[C@@H]1CN(Cc2nc3ncccc3n2C)CC[C@@H]1c1ccc(C(F)(F)F)cc1` (single isomer, unassigned) [compound 118]: the concentration for a half-maximal effect (EC50) was 0.0334 µM.
Consider `C[C@@H]1CN(Cc2nc3ncccc3n2C)CC[C@@H]1c1ccc2c(c1)CCCC2` (relative stereo) [compound 189], for which the EC50 worked out at 0.621 µM.
The same measure, in the same setting: next, `Cc1ccccc1C1CCN(Cc2nc3ncccc3n2C)CC1` [compound 89]: 0.823 µM.
Consider `C[C@@H]1CN(Cc2nc3cnccc3n2C)CC[C@@H]1c1ccc(F)c(C(F)(F)F)c1` (relative stereo) [compound 198], for which the EC50 was 0.176 µM.
As to `COc1cc(C(F)(F)F)ccc1[C@H]1CCN(Cc2nc3ncccc3n2C)C[C@H]1C` (single isomer, unassigned) [compound 130], the EC50 was 0.787 µM.
For `Cn1c(CN2CCC(c3ccc(F)cc3)CC2)nc2ncccc21` [compound 67], the EC50 was determined as 2.36 µM.
Same read-out and setting: with `C[C@H]1CN(Cc2nc3ncccc3n2C)CC[C@H]1c1ccc(Cl)cc1F` [compound 123] the figure was above 1.81 µM; with `Cn1c(CN2CCC(c3cc(F)cc(F)c3)CC2)nc2ncccc21` [compound 91], 0.985 µM; with `Cn1c(CN2CCC(c3ccc(Cl)c(F)c3)CC2)nc2cccnc21` [compound 109], 0.378 µM.
With `COc1ccc([C@H]2CCN(Cc3nc4cnccc4n3C)C[C@H]2C)c(C(F)(F)F)c1` (relative stereo) [compound 174], the EC50 was above 1.69 µM.
For `Cc1ccc([C@H]2CCN(Cc3nc4cnccc4n3C)C[C@H]2C)c(Cl)c1` (relative stereo) [compound 209], the EC50 worked out at 0.159 µM.
As to `C[C@@H]1CN(Cc2nc3cnccc3n2C)CC[C@@H]1c1cc(F)c(F)cc1F` (relative stereo) [compound 180], the EC50 was determined as 0.762 µM.
With `C[C@@H]1CN(Cc2nc3cnccc3n2C)CC[C@@H]1c1ccc(OC(F)F)cc1` (relative stereo) [compound 178], the EC50 was above 1.35 µM.
`COc1cc(OC(F)(F)F)ccc1[C@H]1CCN(Cc2nc3ncccc3n2C)C[C@H]1C` (relative stereo) [compound 215]: the EC50 is 0.0594 µM.
As to `Cn1c(CN2CCC(c3cc(Cl)ccc3F)CC2)nc2ncccc21` [compound 75], the EC50 is 0.324 µM.
Same read-out and setting: next, `Cn1c(CN2CCC(c3cccc(C(C)(C)C)c3)CC2)nc2ncccc21` [compound 79]: 0.124 µM; `Cn1c(CN2CCC(c3ccccc3C#N)CC2)nc2ncccc21` [compound 77]: above 5.7 µM.
In the case of `C[C@@H]1CN(Cc2nc3ncccc3n2C)CC[C@@H]1c1ccc(C(F)(F)F)c(F)c1` (relative stereo) [compound 147], the EC50 was 0.0413 µM.
Take `Cn1c(CN2CCC(c3ccc(C(F)(F)F)cc3)C(O)C2)nc2ncccc21` (centres unmarked) [compound 86]: the EC50 is above 2.75 µM.
Still for that read-out and setting: next, `COc1cc(C(F)(F)F)ccc1C1CCN(Cc2nc3ncccc3n2C)CC1` [compound 64]: 0.0111 µM; `C[C@@H]1CN(Cc2nc3ncccc3n2C)CC[C@@H]1c1ccc(Cl)cc1C(F)(F)F` (relative stereo) [compound 207]: 0.108 µM.
Turning to `COc1ccc([C@H]2CCN(Cc3nc4ncccc4n3C)C[C@H]2C)c(C(F)(F)F)c1` (relative stereo) [compound 173], the EC50 amounted to 0.214 µM.
For the compound `Cn1c(CN2CCC(c3ccccc3F)CC2)nc2cnccc21` [compound 49], the concentration for a half-maximal effect (EC50) was 1.05 µM.
Regarding `CCOc1ccc(Cl)cc1C1CCN(Cc2nc3cccnc3n2C)CC1` [compound 42], the concentration giving a half-maximal response (EC50) was found to be 0.501 µM.
Regarding `C[C@@H]1CN(Cc2nc3ncccc3n2C)CC[C@@H]1c1ccc(F)cc1F` (relative stereo) [compound 124], the concentration for a half-maximal effect (EC50) stood at 0.118 µM.
Regarding `Cn1c(CN2CCC(c3ccc(Cl)cc3F)CC2)nc2cccnc21` [compound 112], the half-maximal effective concentration (EC50) was 0.0585 µM.

The experiment is the same for the next values; noted with them: HEK cells stably transfected with mGluR2 and Gα15; FLIPR (Fluo-4); potentiation of an EC10 to EC20 concentration of glutamate; Table 9.
Turning to `C[C@@H]1CN(Cc2nc3nccc4c3n2CCC4)CC[C@@H]1c1ccc(F)cc1F` (relative stereo) [Example 127, 2-{[Cis-4-(2,4-difluorophenyl)-3-methylpiperidin-1-yl]methyl}-5,6-dihydro-4H-imidazo[4,5,1-ij]-1,7-naphthyridine], the EC50 came out at 0.0471 µM.

Staying with this experiment, now noted: mGluR2 potentiator screen, FLIPR, EC10-EC20 glutamate challenge.
For the compound `Cc1cc(C(F)(F)F)ccc1[C@H]1CCN(Cc2nc3ncccc3n2C)C[C@H]1C` (relative stereo) [compound 239], the 50% effective concentration (EC50) was determined as 0.088 µM.
With `C[C@@H]1CN(Cc2nc3ncccc3n2C)CC[C@@H]1c1ccc(F)c(F)c1F` (relative stereo) [compound 249], the EC50 came out at 0.113 µM.
As for `C[C@@H]1CN(Cc2nc3ncccc3n2C)CC[C@@H]1c1ccc(F)cc1C(F)(F)F` (single isomer, unassigned) [compound 252], the EC50 was found to be 0.288 µM.
For `Cc1cc(C2CCN(Cc3nc4ncccc4n3C)CC2)ccc1C(F)(F)F` [compound 277], the half-maximal effective concentration (EC50) came to 0.0605 µM.
Same read-out and setting: with `C[C@@H]1CN(Cc2nc3ncccc3n2C)CC[C@@H]1c1ccc(OC(F)F)cc1Cl` (single isomer, unassigned) [compound 245] the figure was 0.262 µM; with `Cc1cc(OC(F)(F)F)ccc1C1CCN(Cc2nc3ncccc3n2C)CC1` [compound 241], 0.0507 µM.
Consider `COc1ccc(C2CCN(Cc3nc4cnccc4n3C)CC2)c(C(F)(F)F)c1` [compound 270], for which the EC50 turned out to be 0.494 µM.
Take `Cn1c(CN2CCC(c3ccc(C(F)(F)F)cc3Cl)CC2)nc2ncccc21` [compound 272]: the 50% effective concentration (EC50) was 0.0241 µM.
`COc1ccc(C2CCN(Cc3nc4ncccc4n3C)CC2)c(C(F)(F)F)c1` [compound 271]: the EC50 came to 0.494 µM.
Same read-out and setting: next, `C[C@@H]1CN(Cc2nc3ncccc3n2C)CC[C@@H]1c1ccc(OC(F)(F)F)cc1Cl` (single isomer, unassigned) [compound 256]: above 0.704 µM; `C[C@@H]1CN(Cc2nc3ncccc3n2C)CC[C@@H]1c1ccc(OC(F)(F)F)cc1Cl` (single isomer, unassigned) [compound 255]: 0.0769 µM; `Cc1cc(C(F)(F)F)ccc1C1CCN(Cc2nc3ncccc3n2C)CC1` [compound 243]: 0.0511 µM.
The same measure, in the same setting: next, `Cn1c(CN2CCC(c3c(F)cccc3C(F)(F)F)CC2)nc2ncccc21` [compound 229]: 0.212 µM; `C[C@@H]1CN(Cc2nc3cnccc3n2C)CC[C@@H]1c1ccc(OC(F)(F)F)cc1Cl` (single isomer, unassigned) [compound 254]: 0.0866 µM.
For `Cc1cc(OC(F)(F)F)ccc1C1CCN(Cc2nc3cnccc3n2C)CC1` [compound 240], the concentration for a half-maximal effect (EC50) was found to be 0.0968 µM.
`COc1cc(F)ccc1[C@H]1CCN(Cc2nc3cnccc3n2C)C[C@H]1C` (single isomer, unassigned) [compound 259]: the EC50 was 1.46 µM.
